Where “and” joins values, the source holds several entries; their conditions need not be identical. Identical values can stand only once.
What was measured:
MMT/MCLT rat model of OA [1] = assay: MMT/MCLT trial 1 weight bearing (daily morphine 10 mg/kg, tacrolimus 0.3 or 0.6 mg/kg, fluocinolone 5 or 10 μg/kg, clonidine 100 μg/kg, alendronate 10 μg/kg i.p.; curcumin, withaferin 50 mg/kg p.o.); assay type: in vivo
Method in brief: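 Rats had right-knee medial collateral ligament transection plus full-thickness medial meniscus cut under isoflurane. In trial 1, agents were given daily for 3 weeks from 1 day before surgery; oral agents were gavaged in 0.3% methyl cellulose. Incapacitance was scored weekly as left minus right force and right paw % of total, 5-s averages, mean of three readings.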

MMT/MCLT rat model of OA [2] = assay: MMT/MCLT trial 1 histopathology (same doses); assay type: in vivo; parameters: key to Tibial cartilage degeneration score, 3-zone total: sum of three tibial zone scores (each on 5-point scale); key to Total joint score w/o femur / Total joint score / Total joint score without femur: sum: cartilage degeneration scores + mean osteophyte score; details: for % decrease, bone score / % decrease, depth ratio mean / % decrease, depth ratio zone 2 / % decrease, femoral cartilage degeneration score / % decrease, osteophyte measure / % decrease, osteophyte score / % decrease, significant degeneration width / % decrease, tibial score 3-zone total / % decrease, tibial score zone 1 / % decrease, tibial score zone 2 / % decrease, tibial score zone 3 / % decrease, total degeneration width / % decrease, total joint score / % decrease, total joint score w/o femur: vs saline group
Method in brief: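 Rat knee joints were sectioned in 200-μm steps and stained with toluidine blue. Tibial cartilage degeneration was scored on a 5-point scale in three zones and summed with femoral scores, plus osteophyte scores, to give a total joint score. Results were averaged over three sections.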

[3] = mean, tacrolimus 0.6 mg/kg, fluocinolone 10 μg/kg
[4] = tacrolimus 0.6 mg/kg, fluocinolone 10 μg/kg

With `C=CC[C@@H]1/C=C(\C)C[C@H](C)C[C@H](OC)[C@H]2O[C@@](O)(C(=O)C(=O)N3CCCC[C@H]3C(=O)O[C@H](/C(C)=C/[C@@H]3CC[C@@H](O)[C@H](OC)C3)[C@H](C)[C@@H](O)CC1=O)[C@H](C)C[C@@H]2OC` [Tacrolimus] the “Weight bearing, hours with significant effect” value (MMT/MCLT rat model of OA [1]; day 7, low or only dose) was 3 h, the “Weight bearing, hours with significant effect” value (MMT/MCLT rat model of OA [1]; day 14, tacrolimus 0.6 mg/kg, fluocinolone 0.010 mg/kg) was 1 h and the “Weight bearing, hours with significant effect” value (MMT/MCLT rat model of OA [1]; day 21, low or only dose) was 3 h. For the same compound, the Bone score (MMT/MCLT rat model of OA [2]; mean, low or only dose) was 2.63, the “Depth ratio any matrix change, mean” value (MMT/MCLT rat model of OA [2]; mean, low or only dose) was 0.26 and the “Depth ratio any matrix change, zone 2” value (MMT/MCLT rat model of OA [2]; mean, low or only dose) was 0.07. For the same compound, the “Tibial cartilage degeneration score, 3-zone total” value (MMT/MCLT rat model of OA [2]; mean, low or only dose) was 4.25, the “Tibial cartilage degeneration score, zone 1” value (MMT/MCLT rat model of OA [2]; mean, low or only dose) was 2.75 and the “Tibial cartilage degeneration score, zone 2” value (MMT/MCLT rat model of OA [2]; mean, low or only dose) was 1.50. For the same compound, the “Tibial cartilage degeneration score, zone 3” value (MMT/MCLT rat model of OA [2]; mean, low or only dose) was 0.00, the “Tibial cartilage degeneration width, significant” value (MMT/MCLT rat model of OA [2]; mean, low or only dose) was 441.67 µm and the “Tibial cartilage degeneration width, total” value (MMT/MCLT rat model of OA [2]; mean, low or only dose) was 1137.50 µm. The Tibial osteophyte measure (MMT/MCLT rat model of OA [2]; mean, low or only dose) was 370.83 µm, the Tibial osteophyte score (MMT/MCLT rat model of OA [2]; mean, low or only dose) was 2.38 and the “Total joint score w/o femur” value (MMT/MCLT rat model of OA [2]; mean, low or only dose) was 6.63. For the same compound, the Bone score (MMT/MCLT rat model of OA [2]; [3]) was 3.00, the “Depth ratio any matrix change, mean” value (MMT/MCLT rat model of OA [2]; [3]) was 0.22 and the “Depth ratio any matrix change, zone 2” value (MMT/MCLT rat model of OA [2]; [3]) was 0.02. The “Tibial cartilage degeneration score, 3-zone total” value (MMT/MCLT rat model of OA [2]; [3]) was 3.63, the “Tibial cartilage degeneration score, zone 1” value (MMT/MCLT rat model of OA [2]; [3]) was 2.42 and the “Tibial cartilage degeneration score, zone 2” value (MMT/MCLT rat model of OA [2]; [3]) was 1.21. For the same compound, the “Tibial cartilage degeneration score, zone 3” value (MMT/MCLT rat model of OA [2]; [3]) was 0.00, the “Tibial cartilage degeneration width, significant” value (MMT/MCLT rat model of OA [2]; [3]) was 325.00 μm and the “Tibial cartilage degeneration width, total” value (MMT/MCLT rat model of OA [2]; [3]) was 945.83 μm. The Tibial osteophyte measure (MMT/MCLT rat model of OA [2]; [3]) was 370.00 μm, the Tibial osteophyte score (MMT/MCLT rat model of OA [2]; [3]) was 2.38 and the “Total joint score w/o femur” value (MMT/MCLT rat model of OA [2]; [3]) was 6.00. For the same compound, the “% decrease, combined width severe+marked” value (MMT/MCLT rat model of OA [2]; tacrolimus 0.3 mg/kg) was 86%, the “% decrease, combined width severe+marked+moderate” value (MMT/MCLT rat model of OA [2]; tacrolimus 0.3 mg/kg) was 88% and the “% decrease, combined width severe+marked+moderate+mild” value (MMT/MCLT rat model of OA [2]; tacrolimus 0.3 mg/kg) was 33%. The “% decrease, width of moderate collagen degeneration” value (MMT/MCLT rat model of OA [2]; tacrolimus 0.3 mg/kg) was 91%, the “% decrease, width of severe collagen degeneration” value (MMT/MCLT rat model of OA [2]; tacrolimus 0.3 mg/kg) was 97% and the “% increase, area of any cartilage matrix” value (MMT/MCLT rat model of OA [2]; tacrolimus 0.3 mg/kg) was 59%. For the same compound, the “% increase, area of viable cartilage matrix” value (MMT/MCLT rat model of OA [2]; tacrolimus 0.3 mg/kg, fluocinolone 5 ug/kg) was 26%, the “% decrease, combined width severe+marked” value (MMT/MCLT rat model of OA [2]; tacrolimus 0.6 mg/kg) was 99% and the “% decrease, combined width severe+marked+moderate” value (MMT/MCLT rat model of OA [2]; tacrolimus 0.6 mg/kg) was 96%. For the same compound, the “% decrease, combined width severe+marked+moderate+mild” value (MMT/MCLT rat model of OA [2]; tacrolimus 0.6 mg/kg) was 53%, the “% decrease, width of marked collagen degeneration” value (MMT/MCLT rat model of OA [2]; tacrolimus 0.6 mg/kg) was 97% and the “% decrease, width of severe collagen degeneration” value (MMT/MCLT rat model of OA [2]; tacrolimus 0.6 mg/kg) was 100%. The “% decrease, width of total collagen degeneration” value (MMT/MCLT rat model of OA [2]; tacrolimus 0.6 mg/kg) was 19%, the “% increase, area of any cartilage matrix” value (MMT/MCLT rat model of OA [2]; tacrolimus 0.6 mg/kg) was 69% and the “% increase, width of normal collagen” value (MMT/MCLT rat model of OA [2]; tacrolimus 0.6 mg/kg) was 19%. For the same compound, the “% increase, area of viable cartilage matrix” value (MMT/MCLT rat model of OA [2]; tacrolimus 0.6 mg/kg, fluocinolone 10 ug/kg) was 33%, the “% decrease, bone score” value (MMT/MCLT rat model of OA [2]; low or only dose) was 19% and the “% decrease, depth ratio mean” value (MMT/MCLT rat model of OA [2]; low or only dose) was 29%. For the same compound, the “% decrease, depth ratio zone 2” value (MMT/MCLT rat model of OA [2]; low or only dose) was 59%, the “% decrease, femoral cartilage degeneration score” value (MMT/MCLT rat model of OA [2]; low or only dose) was 73% and the “% decrease, osteophyte measure” value (MMT/MCLT rat model of OA [2]; low or only dose) was 28%. For the same compound, the “% decrease, osteophyte score” value (MMT/MCLT rat model of OA [2]; low or only dose) was 39%, the “% decrease, significant degeneration width” value (MMT/MCLT rat model of OA [2]; low or only dose) was 39% and the “% decrease, tibial score 3-zone total” value (MMT/MCLT rat model of OA [2]; low or only dose) was 35%. The “% decrease, tibial score zone 1” value (MMT/MCLT rat model of OA [2]; low or only dose) was 36%, the “% decrease, tibial score zone 2” value (MMT/MCLT rat model of OA [2]; low or only dose) was 32% and the “% decrease, tibial score zone 3” value (MMT/MCLT rat model of OA [2]; low or only dose) was 100%. The “% decrease, total degeneration width” value (MMT/MCLT rat model of OA [2]; low or only dose) was 13%, the “% decrease, total joint score” value (MMT/MCLT rat model of OA [2]; low or only dose) was 42% and the “% decrease, total joint score w/o femur” value (MMT/MCLT rat model of OA [2]; low or only dose) was 37%. For the same compound, the “% decrease, bone score” value (MMT/MCLT rat model of OA [2]; [4]) was 8%, the “% decrease, depth ratio mean” value (MMT/MCLT rat model of OA [2]; [4]) was 40% and the “% decrease, depth ratio zone 2” value (MMT/MCLT rat model of OA [2]; [4]) was 87%. The “% decrease, femoral cartilage degeneration score” value (MMT/MCLT rat model of OA [2]; [4]) was 48%, the “% decrease, osteophyte measure” value (MMT/MCLT rat model of OA [2]; [4]) was 28% and the “% decrease, osteophyte score” value (MMT/MCLT rat model of OA [2]; [4]) was 39%. The “% decrease, significant degeneration width” value (MMT/MCLT rat model of OA [2]; [4]) was 55%, the “% decrease, tibial score 3-zone total” value (MMT/MCLT rat model of OA [2]; [4]) was 45% and the “% decrease, tibial score zone 1” value (MMT/MCLT rat model of OA [2]; [4]) was 44%. For the same compound, the “% decrease, tibial score zone 2” value (MMT/MCLT rat model of OA [2]; [4]) was 45%, the “% decrease, tibial score zone 3” value (MMT/MCLT rat model of OA [2]; [4]) was 100% and the “% decrease, total degeneration width” value (MMT/MCLT rat model of OA [2]; [4]) was 28%. The “% decrease, total joint score” value (MMT/MCLT rat model of OA [2]; [4]) was 43% and the “% decrease, total joint score w/o femur” value (MMT/MCLT rat model of OA [2]; [4]) was 43%.
With `CC1=C(CO)C(=O)O[C@@H]([C@@H](C)[C@H]2CC[C@H]3[C@@H]4C[C@H]5O[C@]56[C@@H](O)C=CC(=O)[C@]6(C)[C@H]4CC[C@]23C)C1` [Withaferin A] the “Weight bearing, hours with significant effect” value (MMT/MCLT rat model of OA [1]; day 7, low or only dose) was 1 h, the “Weight bearing, hours with significant effect” value (MMT/MCLT rat model of OA [1]; day 14, low or only dose) was 3 h and the Bone score (MMT/MCLT rat model of OA [2]; mean, low or only dose) was 2.88. The “Depth ratio any matrix change, mean” value (MMT/MCLT rat model of OA [2]; mean, low or only dose) was 0.38, the “Depth ratio any matrix change, zone 2” value (MMT/MCLT rat model of OA [2]; mean, low or only dose) was 0.18 and the “Femoral cartilage degeneration score” value (MMT/MCLT rat model of OA [2]; mean, low or only dose) was 1.83 and 1.83 ± 0.52. The “Tibial cartilage degeneration score, 3-zone total” value (MMT/MCLT rat model of OA [2]; mean, low or only dose) was 6.04, the “Tibial cartilage degeneration score, zone 1” value (MMT/MCLT rat model of OA [2]; mean, low or only dose) was 4.13 and the “Tibial cartilage degeneration score, zone 2” value (MMT/MCLT rat model of OA [2]; mean, low or only dose) was 1.88. The “Tibial cartilage degeneration score, zone 3” value (MMT/MCLT rat model of OA [2]; mean, low or only dose) was 0.04, the “Tibial cartilage degeneration width, significant” value (MMT/MCLT rat model of OA [2]; mean, low or only dose) was 637.50 µm and the “Tibial cartilage degeneration width, total” value (MMT/MCLT rat model of OA [2]; mean, low or only dose) was 1262.50 µm. The Tibial osteophyte measure (MMT/MCLT rat model of OA [2]; mean, low or only dose) was 515.42 µm, the Tibial osteophyte score (MMT/MCLT rat model of OA [2]; mean, low or only dose) was 3.96 and the Total joint score (MMT/MCLT rat model of OA [2]; mean, low or only dose) was 11.83 and 11.83 ± 0.61. For the same compound, the “Total joint score w/o femur” value (MMT/MCLT rat model of OA [2]; mean, low or only dose) was 10.00, the “% decrease, bone score” value (MMT/MCLT rat model of OA [2]; low or only dose) was 12% and the “% decrease, depth ratio mean” value (MMT/MCLT rat model of OA [2]; low or only dose) was -5%. The “% decrease, depth ratio zone 2” value (MMT/MCLT rat model of OA [2]; low or only dose) was 0%, the “% decrease, femoral cartilage degeneration score” value (MMT/MCLT rat model of OA [2]; low or only dose) was 0% and the “% decrease, osteophyte measure” value (MMT/MCLT rat model of OA [2]; low or only dose) was 0%. The “% decrease, osteophyte score” value (MMT/MCLT rat model of OA [2]; low or only dose) was -1%, the “% decrease, significant degeneration width” value (MMT/MCLT rat model of OA [2]; low or only dose) was 12% and the “% decrease, tibial score 3-zone total” value (MMT/MCLT rat model of OA [2]; low or only dose) was 8%. The “% decrease, tibial score zone 1” value (MMT/MCLT rat model of OA [2]; low or only dose) was 4%, the “% decrease, tibial score zone 2” value (MMT/MCLT rat model of OA [2]; low or only dose) was 15% and the “% decrease, tibial score zone 3” value (MMT/MCLT rat model of OA [2]; low or only dose) was 0%. For the same compound, the “% decrease, total degeneration width” value (MMT/MCLT rat model of OA [2]; low or only dose) was 4%, the “% decrease, total joint score” value (MMT/MCLT rat model of OA [2]; low or only dose) was 4% and the “% decrease, total joint score w/o femur” value (MMT/MCLT rat model of OA [2]; low or only dose) was 4%.

— article PMC4721142, “Randomized controlled studies on the efficacy of antiarthritic agents in inhibiting cartilage degeneration and pain associated with progression of osteoarthritis in the rat” (Arthritis Research & Therapy, 2016)
